{"source": "ChEMBL document CHEMBL1201862", "about": "“PubChem BioAssay data set” (2004)", "test_in_all_cases": "inhibition of tumour cell growth, NCI panel, 48 h", "key": {"[1]": {"system": "DMS-114"}, "[2]": {"system": "DMS-273"}, "[3]": {"system": "EKVX"}, "[4]": {"system": "HOP-92"}, "[5]": {"system": "K562"}, "[6]": {"system": "KM-20L2"}, "[7]": {"system": "M19-MEL"}, "[8]": {"system": "OVCAR-4"}, "[9]": {"system": "OVCAR-8"}, "[10]": {"system": "RPMI-8226"}, "[11]": {"system": "RXF 393"}, "[12]": {"system": "SF-268"}, "[13]": {"system": "SF-295"}, "[14]": {"system": "SK-MEL-5"}, "[15]": {"system": "SNB-19"}, "[16]": {"system": "U-251"}, "[17]": {"system": "UACC-257"}, "[18]": {"system": "UO-31"}, "[19]": {"system": "XF498"}, "[20]": {"system": "LOX IMVI"}}, "note": "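Cultured in 96-well plates, cells were exposed to test compound for 48 hours across five concentrations. At the GI50, growth is halved.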 Active and inactive are the calls of the source. Rule as the data show it: active = GI50 up to about 1.1 µM and inactive = higher."}
{"compound": "Cn1c(=O)c2nc(NCCO)cnc2n(C)c1=O", "values": [{"measurement": "GI50", "setting": "[1]", "value": "64.1 µM (inactive)"}, {"measurement": "GI50", "setting": "[2]", "value": "53.6 µM (inactive)"}, {"measurement": "GI50", "setting": "[3]", "value": "> 100 µM (inactive)"}, {"measurement": "GI50", "setting": "[4]", "value": "> 100 µM (inactive)"}, {"measurement": "GI50", "setting": "[5]", "value": "44.2 µM (inactive)"}, {"measurement": "GI50", "setting": "[6]", "value": "> 100 µM (inactive)"}, {"measurement": "GI50", "setting": "[7]", "value": "56.5 µM (inactive)"}, {"measurement": "GI50", "setting": "[8]", "value": "62.7 µM (inactive)"}, {"measurement": "GI50", "setting": "[9]", "value": "> 100 µM (inactive)"}, {"measurement": "GI50", "setting": "[10]", "value": "66.4 µM (inactive)"}, {"measurement": "GI50", "setting": "[11]", "value": "35.6 µM (inactive)"}, {"measurement": "GI50", "setting": "[12]", "value": "> 100 µM (inactive)"}, {"measurement": "GI50", "setting": "[13]", "value": "45.3 µM (inactive)"}, {"measurement": "GI50", "setting": "[14]", "value": "> 100 µM (inactive)"}, {"measurement": "GI50", "setting": "[15]", "value": "> 100 µM (inactive)"}, {"measurement": "GI50", "setting": "[16]", "value": "32.9 µM (inactive)"}, {"measurement": "GI50", "setting": "[17]", "value": "> 100 µM (inactive)"}, {"measurement": "GI50", "setting": "[18]", "value": "48.9 µM (inactive)"}, {"measurement": "GI50", "setting": "[19]", "value": "38.9 µM (inactive)"}]}
{"compound": "N#CCCN(CCC#N)c1ccc(/C=C(/NC(=O)Nc2ccccc2Cl)NC(=O)c2cc([N+](=O)[O-])ccc2Cl)cc1", "values": [{"measurement": "GI50", "setting": "[1]", "value": "> 100 µM (inactive)"}, {"measurement": "GI50", "setting": "[2]", "value": "> 100 µM (inactive)"}, {"measurement": "GI50", "setting": "[3]", "value": "> 100 µM (inactive)"}, {"measurement": "GI50", "setting": "[4]", "value": "> 100 µM (inactive)"}, {"measurement": "GI50", "setting": "[5]", "value": "64.6 µM (inactive)"}, {"measurement": "GI50", "setting": "[6]", "value": "> 100 µM (inactive)"}, {"measurement": "GI50", "setting": "[20]", "value": "> 100 µM (inactive)"}, {"measurement": "GI50", "setting": "[7]", "value": "> 100 µM (inactive)"}, {"measurement": "GI50", "setting": "[8]", "value": "> 100 µM (inactive)"}, {"measurement": "GI50", "setting": "[9]", "value": "58.5 µM (inactive)"}, {"measurement": "GI50", "setting": "[10]", "value": "52.4 µM (inactive)"}, {"measurement": "GI50", "setting": "[11]", "value": "> 100 µM (inactive)"}, {"measurement": "GI50", "setting": "[12]", "value": "> 100 µM (inactive)"}, {"measurement": "GI50", "setting": "[13]", "value": "> 100 µM (inactive)"}, {"measurement": "GI50", "setting": "[14]", "value": "> 100 µM (inactive)"}, {"measurement": "GI50", "setting": "[15]", "value": "> 100 µM (inactive)"}, {"measurement": "GI50", "setting": "[16]", "value": "> 100 µM (inactive)"}, {"measurement": "GI50", "setting": "[18]", "value": "55.7 µM (inactive)"}, {"measurement": "GI50", "setting": "[19]", "value": "> 100 µM (inactive)"}]}
{"compound": "c1ccc2c(CCNC3=NCCO3)cccc2c1", "values": [{"measurement": "GI50", "setting": "[3]", "value": "> 10 µM (inactive)"}, {"measurement": "GI50", "setting": "[5]", "value": "> 10 µM (inactive)"}, {"measurement": "GI50", "setting": "[20]", "value": "> 10 µM (inactive)"}, {"measurement": "GI50", "setting": "[8]", "value": "> 10 µM (inactive)"}, {"measurement": "GI50", "setting": "[9]", "value": "> 10 µM (inactive)"}, {"measurement": "GI50", "setting": "[10]", "value": "> 10 µM (inactive)"}, {"measurement": "GI50", "setting": "[11]", "value": "> 10 µM (inactive)"}, {"measurement": "GI50", "setting": "[12]", "value": "> 10 µM (inactive)"}, {"measurement": "GI50", "setting": "[13]", "value": "> 10 µM (inactive)"}, {"measurement": "GI50", "setting": "[14]", "value": "> 10 µM (inactive)"}, {"measurement": "GI50", "setting": "[15]", "value": "> 10 µM (inactive)"}, {"measurement": "GI50", "setting": "[16]", "value": "> 10 µM (inactive)"}, {"measurement": "GI50", "setting": "[18]", "value": "4.26 µM (inactive)"}]}
{"compound": "CN(C)CCNC(=O)c1cccc2c(=O)c3ccccc3oc12", "values": [{"measurement": "GI50", "setting": "[1]", "value": "28.1 µM (inactive)"}, {"measurement": "GI50", "setting": "[2]", "value": "28.8 µM (inactive)"}, {"measurement": "GI50", "setting": "[3]", "value": "> 66.1 µM (inactive)"}, {"measurement": "GI50", "setting": "[4]", "value": "20.1 µM (inactive)"}, {"measurement": "GI50", "setting": "[5]", "value": "40.8 µM (inactive)"}, {"measurement": "GI50", "setting": "[6]", "value": "34.9 µM (inactive)"}, {"measurement": "GI50", "setting": "[20]", "value": "20.7 µM (inactive)"}, {"measurement": "GI50", "setting": "[7]", "value": "22.9 µM (inactive)"}, {"measurement": "GI50", "setting": "[8]", "value": "34.5 µM (inactive)"}, {"measurement": "GI50", "setting": "[9]", "value": "27.7 µM (inactive)"}, {"measurement": "GI50", "setting": "[10]", "value": "29.2 µM (inactive)"}, {"measurement": "GI50", "setting": "[11]", "value": "43.1 µM (inactive)"}, {"measurement": "GI50", "setting": "[12]", "value": "45.2 µM (inactive)"}, {"measurement": "GI50", "setting": "[13]", "value": "30.3 µM (inactive)"}, {"measurement": "GI50", "setting": "[14]", "value": "25.2 µM (inactive)"}, {"measurement": "GI50", "setting": "[15]", "value": "36.9 µM (inactive)"}, {"measurement": "GI50", "setting": "[16]", "value": "44.4 µM (inactive)"}, {"measurement": "GI50", "setting": "[17]", "value": "26.9 µM (inactive)"}, {"measurement": "GI50", "setting": "[18]", "value": "18.1 µM (inactive)"}, {"measurement": "GI50", "setting": "[19]", "value": "31.3 µM (inactive)"}]}
{"compound": "CCOC(=O)COc1ccc(OC)c2c1C(=O)CCC2", "values": [{"measurement": "GI50", "setting": "[1]", "value": "> 100 µM (inactive)"}, {"measurement": "GI50", "setting": "[2]", "value": "> 100 µM (inactive)"}, {"measurement": "GI50", "setting": "[3]", "value": "> 100 µM (inactive)"}, {"measurement": "GI50", "setting": "[5]", "value": "> 100 µM (inactive)"}, {"measurement": "GI50", "setting": "[6]", "value": "> 100 µM (inactive)"}, {"measurement": "GI50", "setting": "[20]", "value": "> 100 µM (inactive)"}, {"measurement": "GI50", "setting": "[7]", "value": "> 100 µM (inactive)"}, {"measurement": "GI50", "setting": "[8]", "value": "> 100 µM (inactive)"}, {"measurement": "GI50", "setting": "[9]", "value": "> 100 µM (inactive)"}, {"measurement": "GI50", "setting": "[10]", "value": "> 100 µM (inactive)"}, {"measurement": "GI50", "setting": "[11]", "value": "> 100 µM (inactive)"}, {"measurement": "GI50", "setting": "[13]", "value": "> 100 µM (inactive)"}, {"measurement": "GI50", "setting": "[14]", "value": "> 100 µM (inactive)"}, {"measurement": "GI50", "setting": "[15]", "value": "20 µM (inactive)"}, {"measurement": "GI50", "setting": "[16]", "value": "> 100 µM (inactive)"}, {"measurement": "GI50", "setting": "[17]", "value": "> 100 µM (inactive)"}, {"measurement": "GI50", "setting": "[19]", "value": "> 100 µM (inactive)"}]}
{"compound": "COc1cc(C2c3cc4c(cc3[C@@H](Nc3ccccc3)C3COC(=O)[C@H]23)OCO4)cc(OC)c1O", "note": "(stereo partly drawn)", "values": [{"measurement": "GI50", "setting": "[1]", "value": "0.687 µM (active)"}, {"measurement": "GI50", "setting": "[2]", "value": "0.142 µM (active)"}, {"measurement": "GI50", "setting": "[3]", "value": "1.96 µM (inactive)"}, {"measurement": "GI50", "setting": "[4]", "value": "0.857 µM (active)"}, {"measurement": "GI50", "setting": "[5]", "value": "0.931 µM (active)"}, {"measurement": "GI50", "setting": "[6]", "value": "2.1 µM (inactive)"}, {"measurement": "GI50", "setting": "[20]", "value": "0.414 µM (active)"}, {"measurement": "GI50", "setting": "[7]", "value": "1.55 µM (inactive)"}, {"measurement": "GI50", "setting": "[8]", "value": "5.6 µM (inactive)"}, {"measurement": "GI50", "setting": "[9]", "value": "1.18 µM (inactive)"}, {"measurement": "GI50", "setting": "[10]", "value": "0.234 µM (active)"}, {"measurement": "GI50", "setting": "[11]", "value": "1.73 µM (inactive)"}, {"measurement": "GI50", "setting": "[12]", "value": "1.04 µM (active)"}, {"measurement": "GI50", "setting": "[13]", "value": "0.171 µM (active)"}, {"measurement": "GI50", "setting": "[14]", "value": "0.787 µM (active)"}, {"measurement": "GI50", "setting": "[15]", "value": "0.34 µM (active)"}, {"measurement": "GI50", "setting": "[16]", "value": "0.391 µM (active)"}, {"measurement": "GI50", "setting": "[17]", "value": "0.615 µM (active)"}, {"measurement": "GI50", "setting": "[18]", "value": "0.531 µM (active)"}, {"measurement": "GI50", "setting": "[19]", "value": "1.03 µM (active)"}]}
